Our source for the IC50 values is US9840532B2, “5′-substituted nucleoside compounds” (Eli Lilly and Company, priority 2015, dated 2017).

T1 sequence (O14744 whole entry): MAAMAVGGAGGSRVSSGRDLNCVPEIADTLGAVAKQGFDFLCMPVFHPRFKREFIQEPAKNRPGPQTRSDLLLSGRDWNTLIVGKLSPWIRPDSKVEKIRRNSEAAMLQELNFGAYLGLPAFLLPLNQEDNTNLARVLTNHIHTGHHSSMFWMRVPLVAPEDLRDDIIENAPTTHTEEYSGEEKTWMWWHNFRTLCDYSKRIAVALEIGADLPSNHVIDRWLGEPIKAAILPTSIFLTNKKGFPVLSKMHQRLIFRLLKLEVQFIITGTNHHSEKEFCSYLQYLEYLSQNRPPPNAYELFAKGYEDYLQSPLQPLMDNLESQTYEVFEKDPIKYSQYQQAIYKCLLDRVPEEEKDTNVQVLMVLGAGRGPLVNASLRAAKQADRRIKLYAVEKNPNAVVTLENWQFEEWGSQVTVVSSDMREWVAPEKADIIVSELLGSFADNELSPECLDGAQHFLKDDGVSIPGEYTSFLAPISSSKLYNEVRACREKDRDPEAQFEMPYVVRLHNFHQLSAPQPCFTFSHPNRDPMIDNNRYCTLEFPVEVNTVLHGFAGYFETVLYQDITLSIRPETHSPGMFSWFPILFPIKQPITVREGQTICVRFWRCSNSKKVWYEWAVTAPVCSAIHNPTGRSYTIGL
T1 sequence (Q9BQA1 whole entry partner): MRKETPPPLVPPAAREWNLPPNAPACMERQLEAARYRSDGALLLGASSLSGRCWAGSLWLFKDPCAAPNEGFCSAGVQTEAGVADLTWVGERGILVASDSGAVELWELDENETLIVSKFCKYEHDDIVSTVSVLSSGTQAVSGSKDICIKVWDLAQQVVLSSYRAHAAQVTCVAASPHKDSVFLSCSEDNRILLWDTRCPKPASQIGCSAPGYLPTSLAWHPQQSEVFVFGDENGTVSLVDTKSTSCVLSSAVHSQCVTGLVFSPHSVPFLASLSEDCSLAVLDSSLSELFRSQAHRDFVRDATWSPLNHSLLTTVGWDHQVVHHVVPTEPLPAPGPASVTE

This experiment addresses T1, PRMT5/MEP50 complex (Homo sapiens, UniProt O14744).
T1 construct: FLAG; made in house; host or cells: baculovirus/Sf9 insect cells
Nature of the experiment: PRMT5/MEP50 SPA Assay. Type of experiment: biochemical. As to conditions: Mean ± SEM. The source says:
The purpose of this assay is to measure the ability of a test compound to inhibit the enzyme activity of PRMT5 in vitro by inhibiting the catalytic activity of PRMT5/MEP50 complex, indicated by the transfer of radiolabeled methyl-^3H to a substrate peptide derived from the N-terminal sequence of the human histone H4.
Express the PRMT5/MEP50 enzyme complex using a baculovirus/Sf9 system and purify using anti-FLAG affinity chromatography, (essentially as described in preparations by Stephen Antonysamy, Zahid Bonday, Robert M. Campbell, Brandon Doyle, Zhanna Druzina, Tarun Gheyi, Bomie Han, Louis N. Jungheim, Yuewei Qian, Charles Rauch, Marijane Russell, J. Michael Sauder, Stephen R. Wasserman, Kenneth Weichert, Francis S. Willard, Aiping Zhang, and Spencer Emtage; Crystal structure of the human PRMT5:MEP50 complex, Proceedings of the National Academy of Sciences, 2012, Volume 109, pages 17960-17965.) Dilute purified enzyme to a working stock of 6.67 nM in assay buffer (50 mM TRIZMA® preset pH ˜8.5, 1 mM DTT, 0.005% TWEEN® 80 0.01% HSA).
Add enzyme (15 μL/well) to a 384-well assay plate (CORNING® cat. #3706). Add test compounds from a 10 mM DMSO stock solution to the plate as serial dilutions in assay buffer to achieve a final test concentrations ranging from 50.0 μM to 25 nM. Create a reaction mix containing 1 μM Histone H4 biotinylated peptide substrate, H-[…]-biotin (SEQ ID NO: 1), prepared by FastMoc chemistry with an ABI 431 peptide, and 4 μM ^3H-SAM; 15 Ci/mmol, 0.366 mCi/mL, 37 μM, PERKIN-ELMER® cat. # NET155000MC) in assay buffer. To each plate well, add 5 μL of the peptide/^3H-SAM reaction mix to yield final assay conditions of 5 nM enzyme, 1 ^3H-SAM, 250 nM peptide and 50 μM maximum test compound concentration with 0.5% DMSO, at a final volume of 20 μL. Incubate the assay for 2 hr at room temperature. Stop the reaction with the addition of guanidine HCl (5 M, 20 μL, Sigma cat. # G3272).
Suspend strepavidin YSI SPA scintillation beads (PERKIN-ELMER®, #RPNQ0012) at 1 mg/mL in pH ˜8.5 Tris buffer containing 5 M guanidine HCl. To each well, add 20 μL of this bead suspension, agitate the resulting mixtures, and incubate for 1 hr at room temperature prior to measuring their radioactivity, using a microplate liquid scintillation counter as an indication of the formation of methylated peptide product.
Generate raw data from the radioactivity measurement as counts per min (CPM). Employ an uninhibited control (DMSO) and maximum inhibited control (250 μM dehydrosinefungin, (isolated essentially as described in Berry, D. R. & Abbott, B. J. Incorporation of carbon-14-labeled compounds into sinefungin (A9145), a nucleoside antifungal antibiotic. J. Antibiot. 1978 (31) 185-191 and references cited therein)). […]
Broadly, the IC50 is the concentration at which inhibition is half-maximal. In the case of `Nc1ncnc2c1ccn2[C@@H]1O[C@H]([C@H](O)c2ccccc2)[C@@H](O)[C@H]1O` [Example 2, (2R,3R,4S,5R)-2-(4-Aminopyrrolo[2,3-d]pyrimidin-7-yl)-5[(R)-hydroxy(phenyl)methyl]tetrahydrofuran-3,4-diol], the midpoint of inhibition, the IC50, lay at 9.51 nM.
Then `Nc1ncnc2c1ccn2[C@@H]1O[C@H]([C@H](O)c2ccc(Cl)cc2)[C@@H](O)[C@H]1O` [Example 1, (2R,3R,4S,5R)-2-(4-Aminopyrrolo[2,3-d]pyrimidin-7-yl)-5-[(R)-(4-chlorophenyl)-hydroxy-methyl]tetrahydrofuran-3,4-diol], with 4.27 nM; and `C[C@@](O)(c1ccc(Cl)cc1)[C@H]1O[C@@H](n2ccc3c(N)ncnc32)[C@H](O)[C@@H]1O` [Example 3, (2R,3R,4S,5S)-2-(4-Aminopyrrolo[2,3-d]pyrimidin-7-yl)-5-[(1R)-1-(4-chlorophenyl)-1-hydroxy-ethyl]tetrahydrofuran-3,4-diol], with 5.23 nM.
